Broadly, the IC50 is the concentration that inhibits the measured activity by half.

For this assay, the target named is human recombinant ATX (Homo sapiens (Human), UniProt Q13822). Briefly: Autotaxin (ATX) activity Quanta Red assay. In kind it is biochemical. Conditions: 15 μM Rac-1-Palmitoyl-glycero-3-phosphocholine, 2 hours room temperature, determined in duplicate. The gist of the method:
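Choline released from 15 μM LPC substrate by 0.8 μg/mL recombinant human ATX (pH 8.0 Tris, CaCl2, 4% DMSO, 2 h, RT) was detected by coupled Quanta Red fluorescence.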
For `O=C(Nc1nnc(CCc2ccc(Cl)cc2)s1)C1CC(=O)N(c2ccc(CN3CCCOCC3)cc2)C1` (centres unmarked) [Compound F101, N-[5-[2-(4-chlorophenyl)ethyl]-1,3,4-thiadiazol-2-yl]-1-[4-(1,4-oxazepan-4-ylmethyl)phenyl]-5-oxo-pyrrolidine-3-carboxamide], the IC50 came to 3 nM.

`O=C(NC1CC(=O)N(c2ccc(CN3CCCCC3)cc2)C1)c1cnc(CCc2ccccc2)s1` (centres unmarked) [Compound F206, N-[5-oxo-1-[4-(1-piperidylmethyl)phenyl]pyrrolidin-3-yl]-2-(2-phenylethyl)thiazole-5-carboxamide]: the IC50 was found to be 9350 nM.

As for `O=C(Nc1nnc(CCc2ccc(Cl)cc2)s1)C1CC(=O)N(c2ccc(CN3CCCCC3)cc2)C1` (centres unmarked) [Compound F99, N-[5-[2-(4-chlorophenyl)ethyl]-1,3,4-thiadiazol-2-yl]-5-oxo-1-[4-(1-piperidylmethyl)phenyl] pyrrolidine-3-carboxamide], the IC50 amounted to 2 nM.

Regarding `O=C(Nc1nnc(CCC2CCCCC2)s1)C1CC(=O)N(c2ccc(CN3CCCOCC3)cc2)C1` (centres unmarked) [Compound F96, N-[5-(2-cyclohexylethyl)-1,3,4-thiadiazol-2-yl]-1-[4-(1,4-oxazepan-4-ylmethyl)phenyl]-5-oxo-pyrrolidine-3-carboxamide], the IC50 turned out to be 2 nM.

Consider `O=C(Nc1nnc(CCC2CCCC2)s1)C1CC(=O)N(c2ccc(CN3CCCC(F)(F)C3)cc2)C1` (centres unmarked) [Compound F115, N-[5-(2-cyclopentylethyl)-1,3,4-thiadiazol-2-yl]-1-[4-[(3,3-difluoro-1-piperidyl)methyl]phenyl]-5-oxo-pyrrolidine-3-carboxamide], for which the IC50 worked out at 3 nM.

Consider `O=C(NC1CC(=O)N(c2ccc(CN3CCCCCC3)cc2)C1)c1nnc(CCc2ccc(Cl)cc2)s1` (centres unmarked) [Compound F134, N-[1-[4-(azepan-1-ylmethyl)phenyl]-5-oxo-pyrrolidin-3-yl]-5-[2-(4-chlorophenyl)ethyl]-1,3,4-thiadiazole-2-carboxamide], for which the IC50 was 3 nM.

In the case of `O=C1CC(CNc2nnc(CCc3ccc(Cl)cc3)s2)CN1c1ccc(CN2CCOCC2)cc1` (centres unmarked) [Compound F153, 4-({5-[2-(4-Chloro-phenyl)-ethyl]-[1,3,4]thiadiazol-2-ylamino}-methyl)-1-(4-morpholin-4-ylmethyl-phenyl)-pyrrolidin-2-one], the IC50 is 2 nM.

For the molecule `O=C(Nc1nnc(SCc2ccc(F)cc2)s1)C1CC(=O)N(c2ccc(CN3CCOCC3)cc2)C1` (centres unmarked) [Compound F154, 1-(4-morpholin-4-ylmethyl-phenyl)-5-oxo-pyrrolidine-3-carboxylic acid [5-(4-fluoro-benzylsulfanyl)-[1,3,4]thiadiazol-2-yl]-amide], the IC50 was 3 nM.

(Values after patent publication US10138230B2, “Autotaxin inhibitors” (CANCER RESEARCH TECHNOLOGY LIMITED, priority 2015, dated 2018).)
